In test [1] the test system is CHO cells where the receptor was not expressed or GPCR other than GPR39 was expressed. The test is classed as cell-based. Particulars: FLIPR; control cells.
Test [2] relates to GPR39-expressed UM-UC-3 cells. Briefly: IL-8 secretion from GPR39-expressed UM-UC-3 cells, quantified by EIA. The following applies: 1 mM copper chloride, 12 hours incubation, culture supernatant. Format: cell-based, human. The method, then:
Using GPR39-expressed UM-UC-3 cells, the effects of adding metal ions as the agonist for GPR39 were examined.
After washing with PBS, the cells were scraped off using trypsin and centrifuged for recovery. […] Next, the suspension was dispensed in a 6-well plate (Falcon) at 5 ml each per well, followed by incubation overnight in a CO2 incubator.
Then, 5 ml each was added to each well, followed by incubation at 37° C. in a CO2 incubator for […]. […] After the culture supernatant was recovered, IL-8 contained in the samples was quantified by EIA (Amersham).

Test [3] deals with bladder (micturition) of conscious rats. Description: Cystometry in conscious rats with intravesical infusion. The test is classed as in vivo, rat. The following applies: female SD rats, 1 mM CuCl2 in saline infused into the bladder. The method, then:
Female SD rats of 9-10 weeks old were anaesthetized by intramuscular injection with 0.1 ml/100 g of a solution obtained by mixing ketamine (50 mg/mL) and xylazine (20 mg/mL) in 5:1. The bladder was then exposed via a midline incision and a hole was made with a 20-G needle to insert a polyethylene tube (PE-50), which tube was sutured to the bladder with cotton thread. The polyethylene tube cannulated into the bladder was cut at a length of about 1 cm, which was connected to a silicon tube (No. 00) and exposed to the dorsum through the skin. The animals were housed in individual cages until they were used for the experiments.
One day after the surgery, the animal was anesthetized with halothane and placed in Ballman cages under restricted conditions. After a three-way cock was connected to the tube cannulated into the bladder, a saline infusion tube was connected to a cystometry tube (resistance to infusion). An electronic scale was placed under the Ballman cages and the micturition volume was measured at the same time. When the anesthetic completely worn off, the infusion of saline into the bladder commenced and the bladder pressure and micturition volume were recorded on a personal computer via an A-D converter (MP-100, BIOPAC Systems) and analyzed using a dedicated software (AcqKnowledge, BIOPAC Systems).
Saline was infused into the bladder at the rate of 6 ml/hr and the infusion was continued for 1 or 2 hours until stable micturition was recorded. In order to enhance the permeability of a drug into the bladder, protamine sulfate (10 mg/mL in PBS) was infused into the bladder for an hour (Chuang Y, et. al., 2003, Urology, 63, 664-670). […] Then, saline was reinfused into the bladder and micturition was recorded at least 2 hours until protamine was completely washed off. […] Mean micturition intervals during from about 30 minutes to about 60 minutes after starting the infusion of CuCl2 were calculated to find a ratio to mean micturition intervals for about 30 minutes before the infusion of CuCl2 (% of the pre-value).

Another test concerns HT-1197. The following applies: FLIPR. As to the method:
(§1) On the day when the assay was conducted, various test samples were added to the cells and the changes of intracellular calcium levels in this case were determined by FLIPR (Molecular Device). In order to determine the changes in intracellular calcium levels on FLIPR, the cells were pre-treated by the following procedures. First, for the purpose of adding a fluorescent dye Fluo-3AM (DOJIN) to the cells or washing the cells immediately before the FLIPR assay, an assay buffer was prepared. A solution was prepared by adding 20 ml of 1M HEPES (pH 7.4) (DOJIN) to 1000 ml of HBSS (Invitrogen Corp.) (hereinafter HBSS/HEPES solution), to which solution was added 10 ml of a solution mixture obtained by dissolving 710 mg of Probenecid (Sigma) in 5 ml of 1N NaOH and further adding 5 ml of HBSS/HEPES solution thereto. The resulting solution was used as the assay buffer. Next, 50 μg of Fluo-3AM was dissolved in 21 μl of DMSO (DOJIN) and an equal volume of 20% Pluronic acid (Molecular Probes) was added to and mixed with the solution. The mixture was then added to 10.6 ml of the assay buffer supplemented with 105 μl of fetal calf serum to prepare a fluorescent dye solution. The medium for the CHO cells where human GPR39 was stably expressed was removed. […] Following the pre-treatment above, the changes in intracellular calcium levels after the addition of each test sample were determined by FLIPR. […]

The next test deals with UM-UC-3. Particulars: FLIPR. As to the method:
as §1

Regarding `[Cl][Cu][Cl]` [copper chloride], in test [1], the “intracellular calcium response in CHO cells without the receptor or with GPCR other than GPR39” value is “no such response was observed”. Also, the “amount of IL-8 accumulated relative to absence of copper chloride” value in test [2] is on record as “approximately twice”. The “basal pressure (bladder)” value in test [3] is “not affected”. Also, in test [3] (about 30-60 min after start vs about 30 min before, pre-value made 100%, n=4), the “ratio of mean micturition intervals (% of the pre-value)” value came out at 42.2±6.1%.
As to `[Cl][Ni][Cl]` [nickel chloride], the “intracellular calcium response in CHO cells without the receptor or with GPCR other than GPR39” value in test [1] is recorded as “no such response was observed”. In the test with HT-1197, the “reaction (change in intracellular calcium levels) in HT-1197” value is listed as “a reaction with nickel was detected”. Besides, the “reaction (change in intracellular calcium levels) in UM-UC-3” value in the test on UM-UC-3 was “a reaction with nickel was detected”.

The record behind these values is US7972800B2, “Screening method for binding property or signal transduction alterations” (Takeda Pharmaceutical Company Limited, priority 2003, dated 2011).
